From patent publication US8349885B2, “Indole and indazole derivatives having a cell-, tissue- and organ-preserving effect” (LG Life Sciences Ltd., priority 2008, dated 2013)

Each molecule was assayed on primary cultured hepatocytes (assay: Cell-protecting effect against cold shock in primary cultured hepatocytes (WST-1)). Settings: Rattus norvegicus, Hepatocyte, 37° C. for 1 hour, 4° C. for 22 hours, then 37° C., cell viability by WST-1.
Type: cell-based
Method: In order to reproduce a condition for preservation prior to organ transplantation, primary cultured hepatocytes were prepared according to Experimental Example 1 and treated with the compounds of the working examples at 9 different concentrations that had been prepared by 3-fold serial dilution method using a starting concentration of 25 μM. The mixture was cultured at 37° C. for 1 hour, stored at 4° C. for 22 hours, and then transferred into an incubator at 37° C. and cultured therein. Cell viability was measured by the optical density at 440 nm according to the WST-1 method (MK-400, Takeda), and IC50 (unit: μM) was obtained using prism software (see Table 1).

Row | SMILES | IC50 [nM]
1 | Cc1cc(NC2CCCC2)c2[nH]c(-c3nc(C(=O)O)cs3)cc2c1 [Example 29, 2-(7-cyclopentylamino-5-methyl-1H-indol-2-yl)-thiazole-4-carboxylic acid] | 1460
2 | Cc1cc(NC2CCCC2)c2[nH]c(-c3nc(CO)cs3)cc2c1 [Example 30, [2-(7-cyclopentylamino-5-methyl-1H-indol-2-yl)-thiazole-4-yl]-methanol] | < 120
3 | c1ccc(-c2cc3cccc(NC4CCCC4)c3[nH]2)nc1 [Example 24, cyclopentyl-(2-pyridin-2-yl-1H-indol-7-yl)amine] | < 120
4 | Cc1cc(NCC2CCOCC2)c2[nH]c(-c3ccccc3)cc2c1 [Example 58, (5-methyl-2-phenyl-1H-indol-7-yl)-(tetrahydro-pyran-4-ylmethyl)-amine] | < 120
5 | O=C(O)C[C@H]1CSC(c2cc3cc(Oc4ccccc4)cc(NC4CCCC4)c3[nH]2)=N1 [Example 21, [(S)-2-(7-cyclopentylamino-5-phenoxy-1H-indol-2-yl)-4,5-dihydro-thiazole-4-yl]-acetic acid] | < 120
6 | O=C(O)C[C@@H]1CSC(c2cc3cc(Br)cc(NC4CCCC4)c3[nH]2)=N1 [Example 16, [(R)-2-(5-bromo-7-cyclopentylamino-1H-indol-2-yl)-4,5-dihydro-thiazol-4-yl]-acetic acid] | 3560
7 | O=C(O)Cc1cc(NC2CCCC2)c2[nH]c(-c3ccccc3)cc2c1 [Example 75, (7-cyclopenthylamino-2-phenyl-1H-indol-5-yl)-acetic acid] | < 120
8 | OC[C@@H]1CSC(c2cc3cccc(NC4CCCC4)c3[nH]2)=N1 [Example 5, [(R)-2-(7-cyclopentylamino-1H-indol-2-yl)-4,5-dihydro-1,3-thiazol-4-yl]-methanol] | < 120
9 | CCOC(=O)CC[C@@H]1CSC(c2cc3cc(Cl)cc(NC4CCCC4)c3[nH]2)=N1 [Example 22, 3-[(R)-2-(5-chloro-7-cyclopentylamino-1H-indol-2-yl)-4,5-dihydro-thiazol-4-yl]-propionic acid ethyl ester] | 970
10 | O=C(O)CC1CSC(c2cc3cccc(NC4CCCC4)c3[nH]2)=N1 (stereo not shown) [Example 83] | 729
11 | CC(=O)N1CCC(Nc2cc(C)cc3cc(-c4ccccc4)[nH]c23)CC1 [Example 51, 1-[4-(5-methyl-2-phenyl-1H-indol-7-ylamino)-piperidin-1-yl]-ethanone] | 260
12 | OC[C@@H]1CSC(c2cc3cccc(NC4CCOCC4)c3[nH]2)=N1 [Example 7, {(R)-2-[7-(tetrahydro-pyran-4-ylamino)-1H-indol-2-yl]-4,5-dihydro-thiazol-4-yl}-methanol] | < 400
13 | OCCc1cc(NC2CCCC2)c2[nH]c(-c3ccccc3)cc2c1 [Example 76, 2-(7-cyclopenthylamino-2-phenyl-1H-indol-5-yl)-ethanol] | < 120
14 | Cc1cc(NC2CCCC2)c2[nH]c(C3CCCCC3)cc2c1 [Example 47, (2-cyclohexyl-5-methyl-1H-indol-7-yl)-cyclopentyl-amine] | < 120
15 | O=S1(=O)CCN(Cc2cc(NCC3CCOCC3)c3[nH]c(-c4ccccc4)c(Br)c3c2)CC1 [Example 142, [3-bromo-5-(1,1-dioxo-thiomorpholin-4-ylmethyl)-2-phenyl-1H-indol-7-yl]-(tetrahydro-pyran-4-ylmethyl)-amine] | 300
16 | C[Si](C)(C)c1[nH]c2c(NC3CCOCC3)cc(CN3CCS(=O)(=O)CC3)cc2c1-c1ccccc1 [Example 146, [5-(1,1-dioxo-thiomorpholin-4-ylmethyl)-3-phenyl-2-trimethylsilanyl-1H-indol-7-yl]-(tetrahydropyran-4-yl)-amine] | 603
17 | Cc1cc(NCC2CCCC2)c2[nH]c(-c3ccccn3)cc2c1 [Example 40, cyclopentylmethyl-(5-methyl-2-pyridin-2-yl-1H-indol-7-yl)-amine] | < 120
18 | Cc1cc(NC2CCC(C(=O)NCCN3CCOCC3)CC2)c2[nH]c(-c3ccccc3)cc2c1 (stereo not shown) [Example 56, 4-(5-methyl-2-phenyl-1H-indol-7-ylamino)-cyclohexane carboxylic acid (2-morpholin-4-yl-ethyl)-amide] | 200
19 | Cc1cc(NC2CCCC2)c2[nH]c(-c3nnco3)cc2c1 [Example 32, cyclopentyl-(5-methyl-2-[1,3,4]oxadiazol-2-yl-1H-indol-7-yl)-amine] | < 120
20 | Cc1cc(NC2CCC(=O)CC2)c2[nH]c(-c3ccccn3)cc2c1 [Example 38, 4-(5-methyl-2-pyridin-2-yl-1H-indol-7-ylamino)-cyclohexanone] | < 120
21 | CCOc1cc(NC2CCCC2)c2[nH]c(C3=N[C@H](CC(=O)O)CS3)cc2c1 [Example 17, [(R)-2-(7-cyclopentylamino-5-ethoxy-1H-indol-2-yl)-4,5-dihydro-thiazol-4-yl]-acetic acid] | < 120

What follows are molecules tested on primary hepatocytes isolated from rats (assay: Hepatocyte-protecting effect: viability of isolated primary hepatocytes in culture (WST-1)). Settings: rat primary hepatocytes; treated at 1 or 10 μM; WST-1, optical density at 440 nm.
Type: cell-based
Method: If cells are isolated from in vivo environment and their culture or preservation in vitro is begun, it would act as a stress to cells, and the apoptosis mechanism would begin to work. For preservation of organs or tissues, it is necessary to protect them from such a primary stress.
In order to verify this, primary hepatocytes isolated from rats were treated with the compounds of the working examples to observe how well the compounds can protect them from a primary stress. Primary hepatocytes were isolated using the Seglen PO method (Experimental Cell Research 74 (1972) pp. 450-454). Briefly, hepatocytes were isolated according to the two-step collagenase perfusion method and then centrifuged using percoll gradient (Kreamer BL etc., In Vitro Cellular & Developmental Biology 22 (1986) pp. 201-211) at low speed (500 rpm) for 10 minutes to remove dead cells. Viability of hepatocytes was maintained at 90% or more. Cells were suspended in HepatoZYME media (Gibco BRL) and counted. 1.5×10^4 cells of 100 μl were put into a 96-well plate (BD biocoat) coated with collagen and attached to the bottom for 3-4 hours. […] After 24, 72 or 144 hours, cell viability was measured to evaluate a hepatocyte-protecting effect.
Cell viability was measured by the optical density at 440 nm according to the WST-1 method (MK-400, Takeda). […]

Row | SMILES | viability after 72 hours, compared with viability after 24 hours | viability after 144 hours, compared with viability after 24 hours [%]
22 | C[C@H](NC(=O)C(=O)Nc1ccccc1C(C)(C)C)C(=O)N[C@@H](CC(=O)O)C(=O)COc1c(F)c(F)cc(F)c1F [IDN6556, reference compound] | about 50% | 
23 | O=C(O)C[C@H]1CSC(c2cc3cc(Oc4ccccc4)cc(NC4CCCC4)c3[nH]2)=N1 [Example 21, [(S)-2-(7-cyclopentylamino-5-phenoxy-1H-indol-2-yl)-4,5-dihydro-thiazole-4-yl]-acetic acid] |  | ≥ 80

What follows are molecules tested on human embryonic lung cell line (LB-HEL) (assay: Cell-protecting effect against cold shock in LB-HEL cells (WST-1)). Settings: cold shock at 4° C. for 24 hours, then 37° C., cell viability by WST-1.
Type: cell-based
Method: The same results as above were also obtained in other types of cells such as human embryonic lung cell line (LB-HEL) as well as hepatocytes (see FIG. 2 and Table 2). More specifically, LB-HEL cells were plated at 1.5×10^6 cells/well using DMEM medium (Gibco BRL) and treated with DMSO, nec-1, IM-54 or the compounds of Examples 126, 127, 137 and 138 at indicated concentrations. After storage at 4° C. for 24 hours, the mixture was transferred into an incubator at 37° C. and cultured therein. In order to verify recovery capacity at 37° C., cell viability after 24 hours post-transfer was measured by the optical density at 440 nm according to the WST-1 method (MK-400, Takeda) and compared with cell viability prior to cold shock (FIG. 2).

Row | SMILES | IC50 [nM]
24 | Clc1cc(NC2CCOCC2)c2[nH]cc(-c3ccccc3)c2c1 [Example 143, (5-chloro-3-phenyl-1H-indol-7-yl)-(tetrahydro-pyran-4-yl)-amine] | < 100
25 | O=C1CN(Cc2c(-c3ccccc3)[nH]c3c(NC4CCCC4)cc(Cl)cc23)CCN1 [Example 147, 4-(5-chloro-7-cyclopentylamino-2-phenyl-1H-indol-3-ylmethyl)-piperazin-2-one] | 1080
26 | COc1ccc(-c2n[nH]c3c(NC4CCOCC4)cccc23)cc1 [Example 151, [3-(4-methoxyphenyl)-1H-indazol-7-yl]-(tetrahydropyran-4-yl)-amine] | 384
27 | Brc1c(-c2ccccc2)[nH]c2c(NC3CCOCC3)cc(CN3CCOCC3)cc12 [Example 140, [3-bromo-(5-morpholin-4-yl)methyl-2-phenyl-1H-indol-7-yl]-(tetrahydropyran-4-yl)-amine] | < 100
28 | O=S1(=O)CCN(Cc2cc(NC3CCOCC3)c3[nH]c(-c4ccccc4)c(Br)c3c2)CC1 [Example 139] | < 100
29 | O=C1CN(Cc2c(-c3ccccc3)[nH]c3c(NC4CCOCC4)cc(Cl)cc23)CCN1 [Example 148, 4-[5-chloro-2-phenyl-7-(tetrahydropyran-4-ylamino)-1H-indol-3-ylmethyl]-piperazin-2-one] | 2350
30 | O=C(O)CC1CSC(c2cc3cccc(NC4CCCC4)c3[nH]2)=N1 (stereo not shown) [Example 83] | 3660
31 | Cc1cc(NC2CCC(F)(F)CC2)c2[nH]c(C3=NC(CC(=O)O)CS3)cc2c1 (stereo not shown) [Example 79] | 3300
32 | COc1ccc(-c2n[nH]c3c(NC4CCCC4)cccc23)cc1 [Example 150, cyclopentyl-[3-(4-methoxyphenyl)-1H-indazol-7-yl]-amine] | 210
33 | COc1ccc(-c2n[nH]c3c(NCC4CCOCC4)cccc23)cc1 [Example 152, [3-(4-methoxyphenyl)-1H-indazol-7-yl]-(tetrahydropyran-4-ylmethyl)-amine] | 590
34 | CC(=O)N1CCC(Nc2cccc3cc(C4=NC(CC(=O)O)CS4)[nH]c23)C1 (stereo not shown) [Example 84] | 7110
35 | O=C1CN(Cc2c(-c3ccccc3)[nH]c3c(NCC4CCOCC4)cc(Cl)cc23)CCN1 [Example 149, 4-{5-chloro-2-phenyl-7-[(tetrahydropyran-4-ylmethyl)-amino]-1H-indol-3-ylmethyl}-piperazin-2-one] | 1450
36 | Clc1cc(NCC2CCOCC2)c2[nH]cc(-c3ccccc3)c2c1 [Example 145, (5-chloro-3-phenyl-1H-indol-7-yl)-(tetrahydropyran-4-ylmethyl)-amine] | < 100
37 | Clc1cc(NC2CCCC2)c2[nH]cc(-c3ccccc3)c2c1 [Example 144, (5-chloro-3-phenyl-1H-indol-7-yl)-(cyclopentyl)-amine] | < 100
38 | O=S1(=O)CCN(Cc2cc(NCC3CCOCC3)c3[nH]c(-c4ccccc4)c(Br)c3c2)CC1 [Example 142, [3-bromo-5-(1,1-dioxo-thiomorpholin-4-ylmethyl)-2-phenyl-1H-indol-7-yl]-(tetrahydro-pyran-4-ylmethyl)-amine] | < 100
39 | C[Si](C)(C)c1[nH]c2c(NC3CCOCC3)cc(CN3CCS(=O)(=O)CC3)cc2c1-c1ccccc1 [Example 146, [5-(1,1-dioxo-thiomorpholin-4-ylmethyl)-3-phenyl-2-trimethylsilanyl-1H-indol-7-yl]-(tetrahydropyran-4-yl)-amine] | 823
40 | O=S1(=O)CCN(Cc2cc(NC3CCCC3)c3[nH]c(-c4ccccc4)c(Br)c3c2)CC1 [Example 141, [3-bromo-5-(1,1-dioxo-thiomorpholin-4-yl methyl)-2-phenyl-1H-indol-7-yl]-cyclopentyl-amine] | < 100
